# Source: patent US20220057377A1, “ANALYTICAL METHOD FOR DETERMINATION OF IN VITRO DRUG RELEASE PROFILE FROM MICRONEEDLE PATCHES” (ZOSANO PHARMA CORPORATION, priority 2020, published 2022)
# Values joined by “and” are separate entries in the source; they are usually repeats but may differ in a detail not shown here. Equal values may be shown once. Read-outs that look alike come from different tables or passages of the source.
# Assays:
# [1] = Sink condition; format: physicochemical
# Procedure: The sink condition is defined as having a volume of medium at least three times that required to form a saturated solution of drug substance. […] The microneedle patch is coated with a specific amount (mg) of the bioactive agent and is intended to deliver a certain percentage of the drug. Based on the data from the solubility study described above, the sink condition can be met by various media.
# The M207 patch is coated with 1.9 mg of zolmitriptan and is intended to deliver 100% of the drug. The mean drug content specification is 90.0%-110.0% of 1.9 mg. Based on the data from the solubility study, the sink condition was met for both the water and 10 mM PBS medium when applying volume of release medium of >6 mL. This is greater than three times the saturated solution in PBS (˜1.6 mL) for 1.9 mg of zolmitriptan released from the M207 patch.
# [2] = cited from earlier work
# [3] = Solubility of zolmitriptan at room temperature in PBS, water and IPA (in-house); format: physicochemical
# Procedure: The solubility of zolmitriptan at room temperature in phosphate buffer saline (PBS), water, and isopropyl alcohol (IPA) were evaluated in-house. Zolmitriptan API was added into 200 mL of water, 10 mM phosphate buffer saline (PBS) at pH 7.4, and IPA until saturated. The solutions were then mixed at room temperature by stir bar overnight. Saturated solutions at 2 and 24 hours were filtered and analyzed for drug concentration by HPLC.
# [4] = Sample solution stability at 2-8° C.; format: physicochemical
# Procedure: Sample solutions containing the released drug after the drug release tests were stored at 2-8° C. for a few days and injected to check the stability of the solution. Six sample solutions from each time points were aliquoted from release test tube and stored in refrigerator at 2-8 C for 15 days before being analyzed by HPLC. […] For the solution concentration is close to 1×-5× of the quantitation limit, 85%-115% recovery from fresh sample is considered reasonable.
# [5] = Stability of zolmitriptan in 10 mM PBS release media; format: physicochemical
# Procedure: In order for the drug to have fully released from the patches, a complete release time of 22 hours was noted. Therefore, stability of zolmitriptan in the release medium was evaluated for up to 24 hours.
structure (smiles),measurement,setting,value
CN(C)CCc1c[nH]c2ccc(C[C@H]3COC(=O)N3)cc12 [zolmitriptan],volume of saturated solution in PBS,[1]; for 1.9 mg of zolmitriptan released from the M207 patch,~1.6 mL
same,volume of release medium at which sink condition was met,"[1]; water and 10 mM PBS medium, 1.9 mg zolmitriptan",> 6 mL
same,volume of solution in which each gram of solute dissolved,"[2]; aqueous solution, pH range 4-14","~10,000 mL"
same,Approximate volume of solvent in mL per gram of solute,[2]; pH 1,From 10 to 30 mL per gram of solute
same,Descriptive Term (solubility),[2]; pH 1,Soluble
same,Approximate volume of solvent in mL per gram of solute,[2]; pH 2,From 100 to 500 mL per gram of solute
same,Descriptive Term (solubility),[2]; pH 2,Slightly soluble
same,Approximate volume of solvent in mL per gram of solute,[2]; pH 3,"More than 10,000 mL per gram of solute"
same,Descriptive Term (solubility),[2]; pH 3,Practically insoluble
same,Approximate volume of solvent in mL per gram of solute,[2]; pH 4,"More than 10,000 mL per gram of solute"
same,Descriptive Term (solubility),[2]; pH 4,Practically insoluble
same,Approximate volume of solvent in mL per gram of solute,[2]; pH 7,"More than 10,000 mL per gram of solute"
same,Descriptive Term (solubility),[2]; pH 7,Practically insoluble
same,Approximate volume of solvent in mL per gram of solute,[2]; pH 14,"More than 10,000 mL per gram of solute"
same,Descriptive Term (solubility),[2]; pH 14,Practically insoluble
same,solubility in aqueous solution (descriptive),[2]; pH range 4-14,slightly soluble to very slightly soluble
same,solubility,"[3]; 10 mM PBS, pH 7.4, aqueous buffer, thermodynamic from solid",~1200 µg/mL
same,Zolmitriptan Concentration (saturated solution),"[3]; 10 mM PBS, pH 7.4, mixed 24 hours, room temperature",1213.19 µg/mL
same,solubility thermodynamic at 2 h,"[3]; 10 mM phosphate buffer saline, aqueous buffer, thermodynamic from solid, 10 mM PBS, pH 7.4, mixed 2 hours, room temperature, read-out: Zolmitriptan Concentration (saturated solution)",1240 µg/mL
same,Zolmitriptan Concentration (saturated solution),"[3]; 100% IPA, mixed 2 hours, room temperature",1691.82 µg/mL
same,Zolmitriptan Concentration (saturated solution),"[3]; HPLC grade Water, mixed 2 hours, room temperature",944.05 µg/mL
same,Zolmitriptan Concentration (saturated solution),"[3]; HPLC grade Water, mixed 24 hours, room temperature",1061.33 µg/mL
same,solubility,"[3]; isopropyl alcohol (IPA), organic solvent or mixture, thermodynamic from solid",~1700 µg/mL
same,solubility,"[3]; water, thermodynamic from solid",~1000 µg/mL
same,Drug Amount,"[4]; T = 15 days at 2-8 C, 1 hour release time point, Average of 6",0.22 mg
same,Drug Amount,"[4]; T = 15 days at 2-8 C, 1 hour release time point, individual sample",0.22 mg and 0.20 mg (2×) and 0.25 mg and 0.23 mg and 0.21 mg
same,Drug Amount,"[4]; T = 15 days at 2-8 C, 2 hours release time point, Average of 6",0.33 mg
same,Drug Amount,"[4]; T = 15 days at 2-8 C, 2 hours release time point, individual sample",0.33 mg (3×) and 0.35 mg and 0.32 mg (2×)
same,Drug Amount,"[4]; T = 15 days at 2-8 C, 3 hours release time point, Average of 6",0.29 mg
same,Drug Amount,"[4]; T = 15 days at 2-8 C, 3 hours release time point, individual sample",0.29 mg (2×) and 0.31 mg and 0.30 mg and 0.26 mg (2×)
same,Drug Amount,"[4]; T = 15 days at 2-8 C, 5 hours release time point, Average of 6",0.42 mg
same,Drug Amount,"[4]; T = 15 days at 2-8 C, 5 hours release time point, individual sample",0.41 mg and 0.48 mg and 0.44 mg and 0.36 mg and 0.42 mg and 0.38 mg
same,Drug Amount,"[4]; T = 15 days at 2-8 C, 12 hours release time point, Average of 6",0.63 mg
same,Drug Amount,"[4]; T = 15 days at 2-8 C, 12 hours release time point, individual sample",0.60 mg and 0.83 mg and 0.76 mg and 0.46 mg and 0.64 mg and 0.51 mg
same,Drug Amount,"[4]; T = 15 days at 2-8 C, 22 hours release time point, Average of 6",0.18 mg
same,Drug Amount,"[4]; T = 15 days at 2-8 C, 22 hours release time point, individual sample",0.15 mg and 0.28 mg and 0.25 mg and 0.10 mg and 0.17 mg and 0.12 mg
same,Drug Amount,"[4]; Time Zero, 1 hour release time point, Average of 6",0.21 mg
same,Drug Amount,"[4]; Time Zero, 2 hours release time point, Average of 6",0.33 mg
same,Drug Amount,"[4]; Time Zero, 3 hours release time point, Average of 6",0.28 mg
same,Drug Amount,"[4]; Time Zero, 5 hours release time point, Average of 6",0.41 mg
same,Drug Amount,"[4]; Time Zero, 12 hours release time point, Average of 6",0.63 mg
same,Drug Amount,"[4]; Time Zero, 22 hours release time point, Average of 6",0.17 mg
same,Drug Amount,"[4]; Time Zero, sample solution of 1 hour release time point, individual sample",0.21 mg and 0.2 mg (2×) and 0.19 mg and 0.24 mg and 0.22 mg
same,Drug Amount,"[4]; Time Zero, sample solution of 2 hours release time point, individual sample",0.33 mg (2×) and 0.34 mg and 0.32 mg (2×) and 0.31 mg
same,Drug Amount,"[4]; Time Zero, sample solution of 3 hours release time point, individual sample",0.28 mg (3×) and 0.3 mg and 0.26 mg (2×)
same,Drug Amount,"[4]; Time Zero, sample solution of 5 hours release time point, individual sample",0.41 mg and 0.48 mg and 0.43 mg and 0.36 mg and 0.42 mg and 0.37 mg
same,Drug Amount,"[4]; Time Zero, sample solution of 12 hours release time point, individual sample",0.59 mg and 0.85 mg and 0.75 mg and 0.45 mg and 0.63 mg and 0.51 mg
same,Drug Amount,"[4]; Time Zero, sample solution of 22 hours release time point, individual sample",0.15 mg and 0.27 mg and 0.24 mg and 0.09 mg and 0.17 mg and 0.12 mg
same,After 24 hours at 32° C. Concentration,[5]; T0 Concentration 0.49 μg/mL,0.50 µg/mL
same,After 24 hours at 32° C. Concentration,[5]; T0 Concentration 5.00 μg/mL,5.02 µg/mL
same,After 24 hours at 32° C. Concentration,[5]; T0 Concentration 335.94 μg/mL,335.94 µg/mL
same,stability in release media,[5]; up to 24 hours at 32° C.,remained stable
